Laboratory results as given in the supplement of paper PMC10307832.

Key:
Test in all cases: relative viability (nuclei count vs DMSO), 5 days (fraction); higher = more cells survive
Dinaciclib = compound: CCc1cnn2c(NCc3ccc[n+]([O-])c3)cc(N3CCCC[C@H]3CCO)nc12 [Dinaciclib]
Outline: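 A plate was accepted only when its control CV was below 25% and the cells had doubled at least once. Viability is defined from nuclear counts as treated wells divided by vehicle wells, with the median taken across plates. That median covers lung cancer cell lines grown in 1536-well plates, dosed by pinning at five √10-spaced library-drug concentrations, and counted in MetaXpress from 4× Hoechst images after 5 days.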

Dinaciclib + Bortezomib = compound: CCc1cnn2c(NCc3ccc[n+]([O-])c3)cc(N3CCCC[C@H]3CCO)nc12 [Dinaciclib] + CC(C)C[C@H](NC(=O)[C@H](Cc1ccccc1)NC(=O)c1cnccn1)B(O)O [Bortezomib] (partner 0.002 µM)
Outline: (§1)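 Relative viability was taken as the ratio of nuclei in treated wells to nuclei in vehicle wells. Lung cancer cell lines in 1536-well plates received compounds by pin tool one day after seeding, either one drug alone or a fixed anchor-drug dose plus five library-drug doses (not always all listed) in √10 steps. Nuclei were counted on 4× images after 5 days of treatment, and values are medians of duplicate plates.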

Dinaciclib + Navitoclax = compound: CCc1cnn2c(NCc3ccc[n+]([O-])c3)cc(N3CCCC[C@H]3CCO)nc12 [Dinaciclib] + CC1(C)CCC(c2ccc(Cl)cc2)=C(CN2CCN(c3ccc(C(=O)NS(=O)(=O)c4ccc(N[C@H](CCN5CCOCC5)CSc5ccccc5)c(S(=O)(=O)C(F)(F)F)c4)cc3)CC2)C1 [Navitoclax] (partner 0.5 µM)
Outline: as §1

Dinaciclib + Foretinib = compound: CCc1cnn2c(NCc3ccc[n+]([O-])c3)cc(N3CCCC[C@H]3CCO)nc12 [Dinaciclib] + COc1cc2c(Oc3ccc(NC(=O)C4(C(=O)Nc5ccc(F)cc5)CC4)cc3F)ccnc2cc1OCCCN1CCOCC1 [Foretinib] (partner 0.25 µM)
Outline: as §1

Dinaciclib + Lapatinib = compound: CCc1cnn2c(NCc3ccc[n+]([O-])c3)cc(N3CCCC[C@H]3CCO)nc12 [Dinaciclib] + CS(=O)(=O)CCNCc1ccc(-c2ccc3ncnc(Nc4ccc(OCc5cccc(F)c5)c(Cl)c4)c3c2)o1 [Lapatinib] (partner 2 µM)
Outline: as §1

Dinaciclib + Pictilisib = compound: CCc1cnn2c(NCc3ccc[n+]([O-])c3)cc(N3CCCC[C@H]3CCO)nc12 [Dinaciclib] + CS(=O)(=O)N1CCN(Cc2cc3nc(-c4cccc5[nH]ncc45)nc(N4CCOCC4)c3s2)CC1 [Pictilisib] (partner 1 µM)
Outline: as §1

Dinaciclib + Crizotinib = compound: CCc1cnn2c(NCc3ccc[n+]([O-])c3)cc(N3CCCC[C@H]3CCO)nc12 [Dinaciclib] + C[C@@H](Oc1cc(-c2cnn(C3CCNCC3)c2)cnc1N)c1c(Cl)ccc(F)c1Cl [Crizotinib] (partner 1 µM)
Outline: as §1

Dinaciclib + Linsitinib = compound: CCc1cnn2c(NCc3ccc[n+]([O-])c3)cc(N3CCCC[C@H]3CCO)nc12 [Dinaciclib] + C[C@]1(O)C[C@@H](c2nc(-c3ccc4ccc(-c5ccccc5)nc4c3)c3c(N)nccn32)C1 [Linsitinib] (partner 1 µM)
Outline: as §1

Dinaciclib + Alpelisib = compound: CCc1cnn2c(NCc3ccc[n+]([O-])c3)cc(N3CCCC[C@H]3CCO)nc12 [Dinaciclib] + Cc1nc(NC(=O)N2CCC[C@H]2C(N)=O)sc1-c1ccnc(C(C)(C)C(F)(F)F)c1 [Alpelisib] (partner 2 µM)
Outline: as §1

Dinaciclib + Olaparib = compound: CCc1cnn2c(NCc3ccc[n+]([O-])c3)cc(N3CCCC[C@H]3CCO)nc12 [Dinaciclib] + O=C(c1cc(Cc2n[nH]c(=O)c3ccccc23)ccc1F)N1CCN(C(=O)C2CC2)CC1 [Olaparib] (partner 8 µM)
Outline: as §1

Row | Cell Line | relative viability (Dinaciclib; 0.009487 µM) | relative viability (Dinaciclib; 0.03 µM) | relative viability (Dinaciclib; 0.09487 µM) | relative viability (Dinaciclib; 0.3 µM) | relative viability (Dinaciclib + Bortezomib; first compound 0.009487 µM) | relative viability (Dinaciclib + Bortezomib; first compound 0.03 µM) | relative viability (Dinaciclib + Bortezomib; first compound 0.09487 µM) | relative viability (Dinaciclib + Bortezomib; first compound 0.3 µM) | relative viability (Dinaciclib + Navitoclax; first compound 0.009487 µM) | relative viability (Dinaciclib + Navitoclax; first compound 0.03 µM) | relative viability (Dinaciclib + Navitoclax; first compound 0.09487 µM) | relative viability (Dinaciclib + Navitoclax; first compound 0.3 µM) | relative viability (Dinaciclib + Foretinib; first compound 0.009487 µM) | relative viability (Dinaciclib + Foretinib; first compound 0.03 µM) | relative viability (Dinaciclib + Foretinib; first compound 0.09487 µM) | relative viability (Dinaciclib + Foretinib; first compound 0.3 µM) | relative viability (Dinaciclib + Lapatinib; first compound 0.009487 µM) | relative viability (Dinaciclib + Lapatinib; first compound 0.03 µM) | relative viability (Dinaciclib + Lapatinib; first compound 0.09487 µM) | relative viability (Dinaciclib + Lapatinib; first compound 0.3 µM) | relative viability (Dinaciclib + Pictilisib; first compound 0.009487 µM) | relative viability (Dinaciclib + Pictilisib; first compound 0.03 µM) | relative viability (Dinaciclib + Pictilisib; first compound 0.09487 µM) | relative viability (Dinaciclib + Pictilisib; first compound 0.3 µM) | relative viability (Dinaciclib + Crizotinib; first compound 0.009487 µM) | relative viability (Dinaciclib + Crizotinib; first compound 0.03 µM) | relative viability (Dinaciclib + Crizotinib; first compound 0.09487 µM) | relative viability (Dinaciclib + Crizotinib; first compound 0.3 µM) | relative viability (Dinaciclib + Linsitinib; first compound 0.009487 µM) | relative viability (Dinaciclib + Linsitinib; first compound 0.03 µM) | relative viability (Dinaciclib + Linsitinib; first compound 0.09487 µM) | relative viability (Dinaciclib + Linsitinib; first compound 0.3 µM) | relative viability (Dinaciclib + Alpelisib; first compound 0.009487 µM) | relative viability (Dinaciclib + Alpelisib; first compound 0.03 µM) | relative viability (Dinaciclib + Alpelisib; first compound 0.09487 µM) | relative viability (Dinaciclib + Alpelisib; first compound 0.3 µM) | relative viability (Dinaciclib + Olaparib; first compound 0.009487 µM) | relative viability (Dinaciclib + Olaparib; first compound 0.03 µM) | relative viability (Dinaciclib + Olaparib; first compound 0.09487 µM) | relative viability (Dinaciclib + Olaparib; first compound 0.3 µM)
1 | Calu-6 | 0.969 | 0.145 | 0.117 | 0.131 | 0.54 | 0.128 | 0.133 | 0.123 | 0.524 | 0.0805 | 0.0782 | 0.0765 | 0.757 | 0.0769 | 0.0773 | 0.0929 | 0.914 | 0.112 | 0.13 | 0.134 | 0.523 | 0.113 | 0.116 | 0.114 | 0.619 | 0.208 | 0.0928 | 0.126 | 1.02 | 0.0954 | 0.0924 | 0.103 | 0.498 | 0.133 | 0.118 | 0.128 | 0.527 | 0.111 | 0.1 | 0.109
2 | EBC-1 | 0.875 | 0.149 | 0.108 | 0.141 | 0.452 | 0.133 | 0.152 | 0.146 | 0.307 | 0.138 | 0.136 | 0.163 | 0.0927 | 0.0992 | 0.106 | 0.106 | 0.21 | 0.16 | 0.168 | 0.157 | 0.283 | 0.117 | 0.109 | 0.142 | 0.198 | 0.159 | 0.151 | 0.136 | 0.977 | 0.228 | 0.101 | 0.127 | 0.501 | 0.138 | 0.123 | 0.141 | 0.737 | 0.132 | 0.126 | 0.106
3 | NCI-H1299 | 0.98 | 0.371 | 0.121 | 0.0997 | 1.05 | 0.216 | 0.142 | 0.135 | 1.12 | 0.27 | 0.107 | 0.107 | 0.986 | 0.202 | 0.104 | 0.088 | 0.824 | 0.198 | 0.137 | 0.124 | 0.416 | 0.0311 | 0.0181 | 0.0214 | 0.709 | 0.681 | 0.144 | 0.111 | 0.883 | 0.24 | 0.103 | 0.0705 | 1.09 | 0.821 | 0.15 | 0.188 | 0.962 | 0.16 | 0.0946 | 0.104
